Reference: patent US20260259169A1, “BETA-LACTAMASE SUBSTRATE COMPOUNDS AND ELECTROCHEMICAL DETECTION METHODS USING THEM” (priority 2023, published 2026)
Like-named read-outs stand apart in the source and are kept apart here.

How the values were obtained:
KPC = KPC (Klebsiella pneumoniae, UniProt Q9F663); assay: Amperometric measurement of oxidation current with KPC in TPTZ buffer; format: biochemical; settings: for detection of the beta-lactamases (oxidation current): KPC concentrations detected: succinate buffer pH 5.5, KPC 239.4, 59.85, 9.975 and 4.985 ng/ml; for detection of the beta-lactamases (oxidation current): KPC concentrations detected / detection of the beta-lactamase concentration of 9.975 ng/mL / detection of the lowest tested concentration of KPC / detection of the highest concentration of KPC: 30 minutes at 37° C.; for detection of the beta-lactamase concentration of 9.975 ng/mL: KPC 9.975 ng/mL; for detection of the lowest tested concentration of KPC / detection of the highest concentration of KPC: 6.0 mM substrate; for detection of the lowest tested concentration of KPC: KPC 59.85 ng/ml; for detection of the highest concentration of KPC: KPC 239.4 ng/ml
Protocol: A medium comprising 1.2 mM of substrate in a succinate buffer of pH 5.5 was prepared for each of the 8 beta-lactamase substrate compounds (7 inventive ones and the HMRZ-86 reference one).
4 different samples to be analyzed were prepared, each comprising KPC as beta-lactamase in a standard 2,4,6-tri-2-pyridinyl-1,3,5-triazine (TPTZ) buffer but in different concentrations: 239.4, 59.85, 9.975 and 4.985 ng/ml (ng of KPC per mL of TPTZ buffer). The two first concentrations of KPC aim to determine the capacity of the derivative to detect the presence of beta-lactamase whereas the two lowest concentrations aim to address the limit of detection.
Each of the […] (in other words 32 combinations) and incubated for 30 minutes at 37° C. Next, an amperometric measurement was performed on all 32 of the incubated mediums, and the oxidation current was determined. The device used was a Metrohm Dropsens and the electrodes were Metrohm Dropsens SCPE 110 electrodes. The oxidation current is the maximum current value measured between 0.1 V and 0.5 V vs. Ag/AgCl.
To test the impact of the concentration of the beta-lactamase substrate compound on the possibility to detect beta-lactamases, a further medium comprising 2.4 mM of the beta-lactamase substrate compound with R being 2-nitro-4-cyanophenyl was prepared. […] The same four beta-lactamase concentrations as in Example 1 were tested (i.e. the same samples). The incubation and measurement were performed as in Example 1.
A medium comprising 6.0 mM of each substrate in a succinate buffer of pH 5.5 was prepared. 2 different samples to be analyzed were prepared, each comprising KPC as beta-lactamase type in a standard 2,4,6-tri-2-pyridinyl-1,3,5-triazine (TPTZ) buffer, but in different concentrations: 239.4 ng/ml and 59.85 ng/ml, respectively (ng of KPC per mL of TPTZ buffer). Each of the […] was added to each of the 2 mediums (in other words 6 combinations) and incubated for 30 minutes at 37° C. Next, an amperometric measurement was performed on all 6 of the incubated mediums, and the oxidation current was determined. The equipment used was the same as that of Example 1.

[1] = test system: bacteria strains that produce KPC/OXA-48; assay: Amperometric detection in blood culture; format: cell-based; settings: 2.4 mM versus HMRZ-86 1.2 mM
Protocol: (§1) The possibility of the beta-lactamase substrate compounds to detect bacteria strains producing different beta-lactamases was tested for the reference HMRZ-86 of example 1 (at 1.2 mM) and the beta-lactamase substrate compound with R being 2-nitro-4-cyano of Example 1 (at 2.4 mM). […] Consequently, amperometric voltammetry of the negative control with ATCC should give an oxidation current of 0 nA for the measurement to be valid.

[2] = test system: bacteria strains that produce VIM type; assay: Amperometric detection in blood culture; format: cell-based; settings: 2.4 mM versus HMRZ-86 1.2 mM
Protocol: as §1
The beta-lactamase with group β being CF3 (6.0 mM), as well as the reference HMRZ-86 (1.2 mM) were also tested with blood cultures comprising bacteria strains producing the carbapenemase KPC type, the metallo-beta-lactamase VIM type and the metallo-beta-lactamase NDM type, as well as a blood culture comprising no bacteria strains producing beta-lactamases (negative control ATCC).

[3] = NMR stability study in relation to a 22 mM succinate buffer reference; format: physicochemical
Protocol: (§2) The stability of the beta-lactamase substrate compounds over time at different temperatures was tested the reference HMRZ-86 of example 1 (at 1.2 mM) and the beta-lactamase substrate compound with R being 2-nitro-4-cyano of Example 1 (at 2.4 mM).
The stability of both beta-lactamase substrate compounds was also tested in relation to a 22 mM succinate buffer reference. […] Contrary to the dimethylformamide (DMF) reference, the degradation in relation to the succinate buffer was similar for both substrate compounds, with the first degradation starting after 2 weeks at both temperatures.

[4] = NMR stability study in relation to a dimethylformamide (DMF) reference; format: physicochemical
Protocol: More particularly, when the degradation is determined by means of NMR measurements, a first sample comprising the beta-lactamase substrate compound according to the present disclosure and a second sample comprising the reference, e.g. DMF, are heated or cooled to a predefined temperature, after which the NMR measurement is performed on both samples (measurement at time=0). The same measurement is repeated on the samples after a predefined time (time=x), while their temperature is kept constant at the predefined temperature from time=0 to time=x. The difference of the integration of NMR measurement signals of both samples is determined by comparing between time=0 and time=x, thereby allowing to define the degree (percentage) of degradation of the beta-lactamase substrate compound at time=x.
as §2
The stability was tested by a NMR stability study. The degradation was measured by measuring the evolution of the integration of NMR measurement signals of the molecule in relation to a dimethylformamide (DMF) reference. The stability of the beta-lactamase substrate compound is expressed by the percentage of degradation in function of time.
The stability of all 3 beta-lactamase substrate compounds (R being 4-cyanophenyl, group β being H, CH3 and CF3, respectively), as well as the beta-lactamase having the same group R and a group β according to formula II was tested at 20° C. in DMF as reference.

CTXM = assay: Amperometric detection of beta-lactamase type producing bacteria strains; format: cell-based; settings: 6.0 mM substrate, HMRZ-86 1.2 mM; qualitative
Protocol: (§3) The possibility to detect different beta-lactamase type producing bacteria strains was also tested. As reference, a reference medium comprising 1.2 mM beta-lactamase substrate compound HMRZ-86 was prepared as well.

OXA-40 = assay: as above; format: cell-based; settings: 6.0 mM substrate, HMRZ-86 1.2 mM; qualitative
Protocol: as §3

OXA-48 = assay: as above; format: cell-based; settings: 6.0 mM substrate, HMRZ-86 1.2 mM; qualitative
Protocol: as §3

OXA-58 = assay: as above; format: cell-based; settings: 6.0 mM substrate, HMRZ-86 1.2 mM; qualitative
Protocol: as §3

SMILES: CC(C)(ON=C(C(=O)NC1C(=O)N2C(C(=O)O)=C(C=Cc3ccc(C#N)cc3C#N)CSC12)c1csc(N)n1)C(=O)O (stereo not drawn) [2,4-dicyano]
- detection of the beta-lactamases (oxidation current): KPC concentrations detected (KPC; 1.2 mM substrate): only the 2 highest concentrations were detected

SMILES: CC(C)(ON=C(C(=O)NC1C(=O)N2C(C(=O)O)=C(C=Cc3ccc(C#N)cc3[N+](=O)[O-])CSC12)c1csc(N)n1)C(=O)O (stereo not drawn) [2-nitro-4-cyano]
- detection of the beta-lactamases (oxidation current): KPC concentrations detected (KPC; 1.2 mM substrate): all 4 concentrations
- oxidation current compared with 1.2 mM HMRZ-86 reference (KPC; 2.4 mM substrate, 4 KPC concentrations): in line with these of the 1.2 mM HMRZ-86 reference
- oxidation current compared with 1.2 mM HMRZ-86 reference, 2 highest beta-lactamase concentrations (KPC; 2.4 mM substrate, KPC 239.4 and 59.85 ng/ml): higher than the reference
- oxidation current on increasing the substrate concentration (KPC; 2.4 mM versus 1.2 mM substrate, 4 KPC concentrations): significantly increases the oxidation current
- oxidation current compared with HMRZ-86 [1]: significantly higher
- oxidation current compared with HMRZ-86 [2]: significantly higher
- time at which the first degradation starts ([3]; 4° C.): 2 weeks
- time at which the first degradation starts ([3]; 20° C.): 2 weeks

SMILES: CC(C)(ON=C(C(=O)NC1C(=O)N2C(C(=O)O)=C(C=Cc3ccc([N+](=O)[O-])c([N+](=O)[O-])c3)CSC12)c1csc(N)n1)C(=O)O (stereo not drawn) [3,4-dinitrophenyl]
- detection of the beta-lactamase concentration of 9.975 ng/mL (KPC; 1.2 mM substrate): could detect

SMILES: CC(C)(ON=C(C(=O)NC1C(=O)N2C(C(=O)O)=C(C=Cc3cc([N+](=O)[O-])cc([N+](=O)[O-])c3)CSC12)c1csc(N)n1)C(=O)O (stereo not drawn) [3,5-dinitrophenyl]
- detection of the beta-lactamase concentration of 9.975 ng/mL (KPC; 1.2 mM substrate): this was not the case

SMILES: CC(C)(ON=C(C(=O)NC1C(=O)N2C(C(=O)O)=C(C=Cc3ccc(C#N)cc3)CSC12)c1csc(N)n1)C(=O)O (stereo not drawn) [4-cyanophenyl]
- oxidation current, compared among R groups with a single moiety at the para-position (KPC; 1.2 mM substrate, 4 KPC concentrations, FIG. 2): highest oxidation currents
- degradation ([4]; 20° C., up to 26 weeks, DMF reference): no signs of degradation

SMILES: CC(=O)NC1C(=O)N2C(C(=O)O)=C(C=Cc3ccc(C#N)cc3)CSC12 (stereo not drawn) [CH3]
- detection of the lowest tested concentration of KPC (KPC): only the “H” and “CF3” groups are capable to detect the lowest tested concentration
- detection of the highest concentration of KPC (KPC): capable to detect
- detection (oxidation current) (CTXM): detect OXA-48 type only
- detection (oxidation current) (OXA-40): detect OXA-48 type only
- detection (oxidation current) (OXA-48): detect OXA-48 type only
- detection (oxidation current) (OXA-58): detect OXA-48 type only
- time of first signs of degradation ([4]; 20° C., DMF reference, up to 26 weeks): 1 weeks

SMILES: N#Cc1ccc(C=CC2=C(C(=O)O)N3C(=O)C(NC=O)C3SC2)cc1 (stereo not drawn) [H]
- detection of the lowest tested concentration of KPC (KPC): capable to detect
- detection of the highest concentration of KPC (KPC): capable to detect
- detection (oxidation current) (CTXM): capable of detecting
- detection (oxidation current) (OXA-40): capable of detecting
- detection (oxidation current) (OXA-48): capable of detecting
- detection (oxidation current) (OXA-58): capable of detecting
- time of first signs of degradation [4]: 13 weeks
